According to ChEMBL document CHEMBL3797190, “Development of 3,5-Dinitrobenzylsulfanyl-1,3,4-oxadiazoles and Thiadiazoles as Selective Antitubercular Agents Active Against Replicating and Nonreplicating Mycobacterium tuberculosis” (J Med Chem, 2016):
pIC50: −log10 of the molar value. Active and inactive are the calls of the source. No cut-off for these calls is given here.

What was measured:
[1] = tested on: Mycobacterium tuberculosis; assay: Antimycobacterial activity against Mycobacterium tuberculosis H37Ra assessed as growth inhibition at 0.2 ug/ml preincubated for 24 hrs followed by radiolabeling with [14C]-acetate for 24 hrs; format: functional; details: read-out: GI
[2] = tested on: Mycobacterium tuberculosis H37Ra; assay: Inhibition of DprE1 in Mycobacterium tuberculosis H37Ra assessed as accumulation of trehalose dimycolate at 0.2 ug/ml preincubated for 24 hrs followed by radiolabeling with [14C]-acetate for 24 hrs by TLC/autoradiographic method
[3] = tested on: Mycobacterium tuberculosis; assay: Inhibition of proteosynthesis in Mycobacterium tuberculosis H37Ra assessed as reduction of [14C]-methionine incorporation at 0.05 ug/ml preincubated for 1 hr followed by radiolabeling with [14C]-methionine for 24 hrs by scintillation spectrometry; format: functional
[4] = Cytotoxicity against human HuH7 cells assessed as cell viability after 24 hrs by MTS assay; format: cell-based; details: Huh-7, 24 h
[5] = Cytotoxicity against human HuH7 cells assessed as cell viability after 48 hrs by MTS assay; format: cell-based; details: Huh-7, 48 h
[6] = tested on: HeLa; assay: Cytotoxicity against human HeLa cells assessed as cell viability after 24 hrs by MTS assay; format: cell-based
[7] = tested on: HeLa; assay: Cytotoxicity against human HeLa cells assessed as cell viability after 48 hrs by MTS assay; format: cell-based
[8] = Cytotoxicity against MDCK2-MDR1 cells assessed as cell viability after 24 hrs by MTS assay; format: ADME, cell-based; details: Canis lupus familiaris, MDCK-II
[9] = Cytotoxicity against MDCK2-MDR1 cells assessed as cell viability after 48 hrs by MTS assay; format: ADME, cell-based; details: Canis lupus familiaris, MDCK-II
[10] = Cytotoxicity against human HuH7 cells assessed as cell viability at 20 uM after 24 hrs by MTS assay; format: cell-based, Huh-7; details: read-out: Activity
[11] = Cytotoxicity against human HuH7 cells assessed as cell viability at 20 uM after 48 hrs by MTS assay; format: cell-based, Huh-7; details: read-out: Activity
[12] = Cytotoxicity against human HeLa cells assessed as cell viability at 20 uM after 24 hrs by MTS assay; format: cell-based; details: read-out: Activity
[13] = Cytotoxicity against human HeLa cells assessed as cell viability at 20 uM after 48 hrs by MTS assay; format: cell-based; details: read-out: Activity
[14] = Cytotoxicity against MDCK2-MDR1 cells assessed as cell viability at 20 uM after 24 hrs by MTS assay; format: ADME, cell-based, Canis lupus familiaris, MDCK-II; details: dog, read-out: Activity
[15] = Cytotoxicity against MDCK2-MDR1 cells assessed as cell viability at 20 uM after 48 hrs by MTS assay; format: ADME, cell-based, Canis lupus familiaris, MDCK-II; details: dog, read-out: Activity
[16] = tested on: Hepatocyte; assay: Cytotoxicity against primary human hepatocytes assessed as cell viability after 48 hrs by MTS assay; format: cell-based
[17] = Cytotoxicity against primary human hepatocytes assessed as cell viability at 20 uM after 48 hrs by MTS assay; format: cell-based, Hepatocyte; details: read-out: Activity
[18] = tested on: Mycobacterium tuberculosis; assay: Antimycobacterial activity against Mycobacterium tuberculosis H37Ra assessed as growth inhibition at 0.05 ug/ml preincubated for 1 hr followed by radiolabeling with [14C]-uracil, [14C]-methionine for 24 hrs; format: functional, organism-based
[19] = tested on: Mycobacterium tuberculosis; assay: Inhibition of RNA biosynthesis in Mycobacterium tuberculosis H37Ra assessed as reduction of [14C]-uracil incorporation at 0.05 ug/ml preincubated for 1 hr followed by radiolabeling with [14C]-uracil for 24 hrs by scintillation spectrometry; format: functional

SMILES	inhibition of growth at 0.2 µg/mL [1]	inhibition [2]	inhibition at 0.05 µg/mL [3]	pIC50 [4]	pIC50 [5]	pIC50 [6]	pIC50 [7]	pIC50 [8]	pIC50 [9]	viability at 24 h, 20 µM [10]	viability at 48 h, 20 µM [11]	viability at 24 h, 20 µM [12]	viability at 48 h, 20 µM [13]	viability at 24 h, 20 µM [14]	viability at 48 h, 20 µM [15]	pIC50 [16]	viability at 48 h, 20 µM [17]	growth inhibition (GI) [18]	inhibition at 0.05 µg/mL [19]
C[C@H]1COC2(CCN(c3nc(=O)c4cc(C(F)(F)F)cc([N+](=O)[O-])c4s3)CC2)O1 [BTZ-043]	38%	Active																	
CO[C@H]1/C=C/O[C@@]2(C)Oc3c(C)c(O)c4c(O)c(c(/C=N/N5CCN(C)CC5)c(O)c4c3C2=O)NC(=O)/C(C)=C\C=C\[C@H](C)[C@H](O)[C@@H](C)[C@@H](O)[C@@H](C)[C@H](OC(C)=O)[C@@H]1C [RIFAMPIN]			61%	< 4.70	< 4.70	< 4.70	< 4.70	< 4.70	< 4.70	98.3%	52.7%	102%	100%	103%	106%	< 4.70	123%	Active	68%
